The text below walks through data of US20230190650A1 (The University of North Carolina at Chapel Hill, priority 2020, published 2023).

Counter-ions that a name gives are not always drawn.

For series [1] the following is noted: local anesthetic activity profile; cited from earlier work.
The procedure of series [2]: (§1) Identical samples were prepared with 0.5 g/L EDTA added as preservative). These aliquots were quantified by HPLC, alongside aliquots of the formulation (both with and without EDTA) treated in the same manner, which were dissolved in ethanol immediately before quantification.
(§2) The column was a YMC-Pack Pro C18 column (3 µm particle size, 120 Å pore size, 4.6 x 150 mm) and mobile phase was 30 mM potassium phosphate, 0.16% trimethylamine, adjusted to pH 4.9 with phosphoric acid, 30% Acetonitrile.
(§3) “Fridge” samples stored at 4° C., “Heat” at 40° C., “Light” on bench in clear vials. An “E” after the storage condition indicates samples with 5 g/L EDTA added as preservative.

Series [3] is described as follows: Stability of drugs in the anesthetic formulation (HPLC). The series is classed as physicochemical. To be noted: eutectic emulsion formulation. The protocol:
as §1, §2, §3

For series [4] the following is noted: cited from earlier work; for logD7.4: pH 7.4.
Series [5] is described as follows: In vitro dissolution testing of LBB-111 (release into PBS from 3D printed socket). Format: physicochemical. Particulars: from LBB-111; PBS pH 7.4, 37° C. The method, then: As a first step to approximate release properties of LBB-111, we performed in vitro dissolution testing under various conditions. […] Mixing was accomplished using the smaller “mini” spin paddles at 59 rpm. Dissolution media [900 mL Phosphate buffered saline (PBS), pH 7.4] was equilibrated at 37° C. overnight before the start of a run. To mimic a human molar socket, cylindrical chambers with internal dimensions approximately 1 cm tall and 1 cm in diameter, with a high infill base to give the socket weight and stability were 3D printed at the UNC BeAM […] using an Ultimaker 3. Sockets were filled to the rim with formulation using an 18 g needle, and the formulation weight (around 0.8 g for these sockets) was recorded. The flat base of the socket was placed on the bottom of each dissolution chamber and mixing initiated. […] Referring now to FIG. 6, the graph illustrates drug released into PBS medium plotted as the fraction of the total that was present in the formulation at the start (% released). […] Formulation samples were dissolved in 19-times their weight (final conc. 5% wt) 200-proof ethanol, the ethanol dissolved samples were then diluted 5-fold into distilled water, and 10 μL of this dilution was injected.

Series [6] is described as follows: Partitioning of small molecules between aqueous phase and oily eutectic. Particulars: after 10 minutes of mixing; 0.5 g/L bupivacaine-HCl, 5 g/L chlorobutanol, 25 g/L benzyl alcohol. Format: physicochemical.

For orientation: pKa means the negative logarithm of the acid dissociation constant. Regarding `CCOC(=O)c1ccc(N)cc1` [Benzocaine], in series [1], the Duration result is listed as “Short”, the Onset result is recorded as “Fast” and the Potency entry is listed as “Low”. In series [2], the degradation in solution entry is listed as “almost undetectable”. For the same molecule, in series [2] (saliva analogue buffer, light or heat (40° C.) conditions, without EDTA), the “time to becoming undetectable in solution” value is reported as no more than 10 days. Also, in series [3], the “degradation in the formulation without EDTA” value was “lack of benzocaine degradation”. Besides, in series [4], the pKa is listed as 2.8 and the logD7.4 was 1.86. Besides, the relative release rate result in series [5] was “fastest”.

A word on the logP: it is a log measure of how a compound divides between an organic and an aqueous phase. On to `CCCCN1CCCCC1C(=O)Nc1c(C)cccc1C` (stereo not shown) [Bupivacaine], for which, in series [1], the Duration result is reported as “Long”, the Onset entry is reported as “Moderate” and the Potency entry is “High”. In addition, in series [4], the logP is on record as 3.41 and the logD7.4 is 2.39. In series [5], the relative release rate result was “slowest”.

For the molecule `OCc1ccccc1` [benzyl alcohol], the “presence in the aqueous phase after mixing with the eutectic” value in series [6] is reported as “undetectable”.

Regarding `CCCCN1CCCCC1C(=O)Nc1c(C)cccc1C` (stereo not shown) [bupivacaine-HCl, bupivacaine hydrochloride], the “presence in the aqueous phase after mixing with the eutectic” value in series [6] is “undetectable”.

In the case of `CCN(CC)CC(=O)Nc1c(C)cccc1C` [Lidocaine], in series [1], the Duration result is “Moderate”, the Onset entry is given as “Fast” and the Potency entry is recorded as “Medium”. Moreover, in series [2], the degradation in solution entry is reported as “almost undetectable” and the “degradation in solution, Heat sample with EDTA” value is listed as “some lidocaine degradation”.
